Laboratory results published in article PMC8291485, “Development of New Benzylpiperazine Derivatives as σ1 Receptor Ligands with in Vivo Antinociceptive and Anti-Allodynic Effects” (ACS Chemical Neuroscience, 2021).
Entries after “also recorded” stand apart in the source; their conditions may differ. Where two headings read alike, the source gives them in different places.

Key:
σ1R [1] = target: T1, σ1R (Cavia porcellus, UniProt Q60492); assay: σ1R radioligand binding assay ([3H]-pentazocine, guinea pig brain membrane homogenates); conditions: for Ki: mean ± SD of three independent experiments, [3H]-pentazocine, free base; for Ki σ2/Ki σ1: σ1R selectivity ratio over σ2R
T1 construct: from tissue; host or cells: guinea pig brain membrane homogenates
T1 sequence (Q60492 whole entry): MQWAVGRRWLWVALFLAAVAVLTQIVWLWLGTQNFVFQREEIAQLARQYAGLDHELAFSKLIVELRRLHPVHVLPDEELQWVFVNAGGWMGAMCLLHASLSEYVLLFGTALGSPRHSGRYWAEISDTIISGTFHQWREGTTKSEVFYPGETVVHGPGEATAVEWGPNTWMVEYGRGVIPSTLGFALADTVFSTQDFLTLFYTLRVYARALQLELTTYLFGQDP
Description: The binding assay for σ1R was carried out using guinea pig brain membrane homogenates according to DeHaven-Hudkins et al.,[58] while the binding assay for σ2R was performed following experimental procedures described by Mach et al.[59] Inhibitory constants (Ki) were calculated using the radioligand binding analysis software EBDA/Ligand (Elsevier/Biosoft).

σ1R [2] = target: T1, σ1R; design: method as in PMID 27262426; conditions: lead compound 8, selectivity ratio; cited from earlier work
σ1R [3] = target: σ1R; design: method as in PMID 22784008, PMID 31258480, PMID 31981633, PMID 32691179, PMID 28644012; conditions: cited from earlier work; for Ki: Figure 1, read-out: Ki σ1
σ2R = target: T2, σ2R (Rattus norvegicus, UniProt Q5U3Y7); design: method as in PMID 22784008, PMID 31258480, PMID 31981633, PMID 32691179, PMID 28644012; conditions: cited from earlier work
T2 sequence (Q5U3Y7 1-176): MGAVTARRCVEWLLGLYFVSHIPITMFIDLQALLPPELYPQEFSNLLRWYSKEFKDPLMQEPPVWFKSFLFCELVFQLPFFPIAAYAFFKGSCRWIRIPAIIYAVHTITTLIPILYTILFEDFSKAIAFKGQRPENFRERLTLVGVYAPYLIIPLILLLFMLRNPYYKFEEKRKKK

[4] = tested on: CCI-induced mechanical allodynia; assay: Chronic constriction injury (CCI) model, von Frey mechanical allodynia; format: in vivo, CD-1 mice; conditions: for anti-allodynic effect in the CCI model (result in words): von Frey, 20–80 min post-injection, 15 10–60 mg/kg i.p. (oxalate salt)
Description: CCI was introduced in CD-1 mice that were first anesthetized with isoflurane as described by Hoot et al.[66] and Cirino et al.[35] to induce mechanical allodynia.[51]−[54] After anesthetization, mice were subjected to surgery where an incision was made along the surface of the biceps femoris of the right hind paw.[66] Blunt forceps were used to split the muscle and expose the right sciatic nerve. The tips of two 0.1–10 μL pipet tips facing opposite directions were passed under the sciatic nerve to allow for easy passing of two sutures under the nerve, 1 mm apart. The sutures were tied loosely around the nerve and knotted twice, and the skin was closed with 29 mm skin staples. Mice were given a 7 day recovery period prior to the baseline von Frey testing as described below to confirm the induction of hyperalgesia in each mouse. […] Allodynic mice were then administered (i.p.) either vehicle (saline), morphine (10 mg/kg, i.p.), gabapentin (50 mg/kg, i.p.), CM304 (45 mg/kg, i.p.), or compound 15 (10–60 mg/kg, i.p.). Note that gabapentin was tested 1 h postinjection to circumvent known sedative effects that may confound the assay.[67] Each mouse was then tested for the modulation of tactile allodynia every 20 min up until 80 min post-injection with the use of von Frey testing. The assessment of mechanical allodynia was performed to measure compound 15’s efficacy against CCI-induced allodynia as described.[51]−[54] Mice were habituated on a mesh platform for 1 h prior to testing. Filaments of increasing pressure (0.4–6 g) were applied and then held to the plantar surface of both the injured and uninjured hind paws of mice for approximately 1–2 s prior to drug administration to record baseline responses to a peripheral stimulus. The filaments were applied with increasing strengths, and threshold responses were defined as two hind paw responses per trial of the same filament strength. Control or test compounds were administered (i.p.), and paw-withdrawal thresholds were again recorded from 20 to 80 min postinjection. Each hind paw was tested in a counterbalanced manner. Each time was measured in triplicate and then averaged. Responsiveness was a clear withdrawal, shaking, or licking of the paw. To account for variability between mice, data are presented as the percent of baseline paw withdrawal thresholds following filament stimulation of the ipsilateral hind paw. The following equation was used: % anti-allodynia = 100 × ([mean paw withdrawal force {g} in control group – paw withdrawal force {g} of each mouse]/mean paw withdrawal force [g] in control group).

[5] = tested on: formalin-induced inflammatory nociception; assay: Formalin-induced inflammation assay (time spent licking the paw); format: in vivo; conditions: C57BL/6J mice, 3–30 mg/kg i.p.; 15 as oxalate salt
Description: After a 10 min pretreatment (i.p.) of vehicle control (saline), CM304 (3–30 mg/kg, i.p.), or compound 15 (3–30 mg/kg, i.p.), an intraplantar (i.pl.) injection of 5% formalin ([…] in 15 μL) was administered into the right hind paw. Time spent licking the right hind paw was recorded in 5 min intervals for 60 min following injection. The last 55 min of assessment was used to determine the inflammatory response stimulus. Data were analyzed as the summed duration of licking hind paw.
All data are presented as mean ± SEM. Significance is indicated as *p < 0.05 and was analyzed using two-way ANOVA with Tukey’s post hoc analysis. Statistical analysis was performed with the use of GraphPad Prism 9.0 software. […]. The rotarod data are expressed as the % change from baseline performance for each animal’s baseline response.

Row | Ki (σ1R [1]) [µM] | Ki σ2/Ki σ1 (σ1R [1]) | Compound | Ki (σ1R [3]) [µM] | further results
1 | 0.0133 ± 0.00022 | 124 | COc1ccc(CN2CCN(C(=O)CCCc3ccccc3)CC2)cc1 [Compound 14, 1-{4-[(4-Methoxyphenyl)methyl]piperazin-1-yl}-4-phenylbutan-1-one] | – | melting point: 91 to 93.9 °C
2 | – | – | COc1ccc(CN2CCN(C(=O)CCCCC3CCSS3)CC2)cc1 (stereo not drawn) [Compound 8] | – | Ki σ2/Ki σ1 (σ1R [2]): 432
3 | – | – | FCCC1Cc2ccccc2C2(CCC(N3CCN(C4CCCCC4)CC3)CC2)O1 (stereo not drawn) [cis-7] | 0.019 | –
4 | – | – | OCCCN1CCCC2CC1c1cc(-c3ccc(C(F)(F)F)cc3)ccc12 (stereo not drawn) [Compound 4] | > 1 | –
5 | 0.0181 ± 0.00044 | 64 | COc1ccc(CN2CCN(C(=O)CCCCc3ccccc3)CC2)cc1 [Compound 13, 1-{4-[(4-Methoxyphenyl)methyl]piperazin-1-yl}-5-phenylpentan-1-one] | – | –
6 | 0.0061 ± 0.0001 | 423 | O=C(CCCCc1ccccc1)N1CCN(Cc2ccc(CO)cc2)CC1 [Compound 24, 1-(4-{[4-(Hydroxymethyl)phenyl]methyl}piperazin-1-yl)-5-phenylpentan-1-one] | – | –
7 | – | – | COc1cc2c(cc1OC)CN(CCCCn1c(=O)n(C)c3ccccc31)CC2 [Compound 3, 1-(4-(6,7-dimethoxy-3,4-dihydroisoquinolin-2(1H)-yl)butyl)-3-methyl-1H-benzo[d]imidazol-2(3H)-one] | 0.56 | Ki σ1/Ki σ2 (σ2R; printed in Figure 1, σ2R selectivity): > 1,302
8 | 0.0113 ± 0.00026 | 351 | COc1ccc(CN2CCN(C(=O)/C=C/c3ccccc3)CC2)cc1 [Compound 16, (2E)-1-{4-[(4-Methoxyphenyl)methyl]piperazin-1-yl}-3-phenylprop-2-en-1-one] | – | melting point: 120.8 to 122.6 °C
9 | – | – | O=c1oc2ccc(Cl)cc2n1CCCCN1CCCCCC1 [Compound 6] | 0.0023 | –
10 | – | – | CC(CCCn1c(=O)sc2cc(F)ccc21)N1CCN(C2CCCCC2)CC1 (stereo not drawn) [Compound 5] | 0.0024 | –
11 | – | – | O=c1sc2cc(CCCF)ccc2n1CCN1CCCCCC1 [Compound 1] | 0.00096 | Ki σ2/Ki σ1 (σ1R [3]; printed in Figure 1, σ1R selectivity): > 486; Ki (σ2R; Figure 1, read-out: Ki σ2): 0.467 µM; time of peak anti-allodynic effect ([4]; CD-1 mice, CM304 45 mg/kg i.p., began to diminish at 60 min): 40 min; anti-allodynic effect in the CCI model (result in words) ([4]; CD-1 mice, CM304 45 mg/kg i.p.): anti-allodynic effects that are comparable to those of gabapentin
12 | 0.0088 ± 0.00022 | 370 | COc1ccc(CN2CCN(C(=O)CCc3ccccc3)CC2)cc1 [Compound 21, 1-{4-[(4-Methoxyphenyl)methyl]piperazin-1-yl}-3-phenylpropan-1-one] | – | –
13 | 0.102 ± 0.0006 | 43 | COc1ccc(CN2CCN(C(=O)CCCOc3ccccc3)CC2)cc1 [Compound 20, 1-{4-[(4-Methoxyphenyl)methyl]piperazin-1-yl}-4-phenoxybutan-1-one] | – | melting point: 88.3 to 91.3 °C
14 | 0.0016 ± 5e-05 | 886 | COc1ccc(CN2CCN(C(=O)CCC3CCCCC3)CC2)cc1 [Compound 15, 3-Cyclohexyl-1-{4-[(4-methoxyphenyl)methyl]piperazin-1-yl}propan-1-one] | – | antinociception in the formalin assay (result in words) [5]: dose-dependent (3–60 mg/kg, i.p.) antinociception and anti-allodynic effects; also recorded: significant dose-dependent antinociception; also recorded: dose-dependent increase in % antinociception; also recorded: significant antinociceptive and anti-allodynic effects; paw withdrawal thresholds in the CCI model (result in words) ([4]; 60 mg/kg, i.p., at 20, 60, and 80 min post-injection, p < 0.05): significant increases in withdrawal thresholds; anti-allodynic effect in the CCI model (result in words) ([4]; CD-1 mice, CM304 45 mg/kg i.p.): dose-dependent (3–60 mg/kg, i.p.) antinociception and anti-allodynic effects; also recorded: significant dose-dependent anti-allodynic effects; also recorded: significant antinociceptive and anti-allodynic effects
15 | – | – | FCCC1Cc2ccccc2C2(CCC(N3CCN(C4CCCCC4)CC3)CC2)O1 (stereo not drawn) [trans-7] | 0.012 | –

Row | Compound | Ki (σ1R [1]) [µM] | Ki σ2/Ki σ1 (σ1R [1]) | Ki (σ1R [3]) [µM] | further results
16 | COc1ccc(CN2CCN(C(=O)Cc3ccccc3)CC2)cc1 [Compound 22, 1-{4-[(4-Methoxyphenyl)methyl]piperazin-1-yl}-2-phenylethan-1-one] | 0.145 ± 0.0005 | 160 | – | melting point: 97.6 to 99.8 °C
